Assays:
[1] = biological target: T1, recombinant human G3BP1 protein (Homo sapiens, UniProt Q13283); assay: SPR analysis of binding to G3BP1 (Biacore T200, CM5 chip); settings: 1:1 binding model, running buffer PBS
T1 construct: purchased Hubei Ipodix Biotechnology Co., Ltd. (China)
Protocol: The SPR analyses were carried out using a Biacore T200 instrument (GE Healthcare, USA) with the Series Sensor Chip CM5 (GE Healthcare, USA). The recombinant human G3BP1 protein was purchased from Hubei Ipodix Biotechnology Co., Ltd. (China). The protein was immobilized on the chip using an amine coupling kit (GE Healthcare, USA). The blank channel served as the negative control. The binding experiments were performed at a flow rate of 30 µL min^−1. For the measurement of the kinetic parameters of PB3 and 6c, gradient dilutions of PB3 and 6c were injected into the immobilized protein. The running buffer was PBS. All biosensor data were processed and analyzed with Biacore T200 Evaluation software version 3.2 (GE Healthcare, USA) and fitted by a 1:1 binding model.

G3BP1 = assay: Immunoblotting of G3BP1 protein level; assay type: cell-based
Protocol: Cells and tissues were homogenized in RIPA buffer (Beyotime, China) containing protease inhibitors (Biovision, USA) on ice for 30 min. After centrifugation (13000 r min^−1, 4 °C) for 10 min, the resulting supernatant was collected. The protein concentrations were determined by a BCA protein assay kit (Thermo Scientific, USA). After separating a 10% sodium dodecyl sulfate (SDS)‐polyacrylamide gel, protein on the gel was then transferred onto nitrocellulose membranes (Merck, USA), which were blocked with 5% bovine serum albumin for 1 h to prevent non‐specific binding. Then, the anti‐caspase 3 antibody (catalog no. 9662, Cell Signaling Technology, USA), anti‐Bcl‐2 antibody (catalog no. GTX100064, GeneTex, USA), anti‐G3BP1 antibody (catalog no. 66486‐1‐Ig, Proteintech, China), anti‐β‐tubulin antibody (catalog no. 66240‐1‐Ig, Proteintech, China), and anti‐β‐actin antibody (catalog no. 66009‐1‐Ig, Proteintech, China) were used for treating the membrane overnight at 4 °C. Bound antibodies were detected with the species‐appropriate horseradish peroxidase‐labeled secondary antibody (Jackson ImmunoResearch, USA) using ECL reagents (ShareBio, China). Protein‐specific signals were detected using a Bio‐Rad Imager (Bio‐Rad, USA), and the bands were quantified by densitometric analysis software (ImageJ). β‐tubulin or β‐actin was used as a loading control.

G3BP1‐bound mRNA = assay: RIP assay with RT-qPCR of G3BP1-bound mRNAs; assay type: cell-based; settings: 50 µM, 6 h of reperfusion following OGD
Protocol: (§1) Total RNA from HT22 cells was extracted with Trizol. The concentration and purity of RNA were determined by Nanodrop (Thermo Scientific, USA), and RNA was reverse transcribed by PrimeScript Reverse Transcription Master Mix (TaKaRa, Japan). Then RT‐qPCR was performed using Hieff qPCR SYBR Green Master Mix (Yeasen, China). The expression level of the transcripts was normalized to the constitutive expression level of β‐actin. The primers used for amplification are listed in Table S4 (Supporting Information).
RIP assay was performed with the BeyoRIP RIP Assay Kit (Beyotime, China) using the manufacturer's protocol. HT22 cells were washed with PBS and centrifuged, then the cell was resuspended in complete lysis buffer. 3–5 µg antibody was pre‐bound to protein A/G agarose beads in NT2 wash buffer for 0.5 h and then incubated with 270 µL cell lysates for 4 h at 4 °C with rotation, and RNA was eluted from the beads by incubating with 100 µL elution buffer for 0.5 h at 55 °C. The eluted RNA was dissolved with RNase‐free water. Enrichment of certain fragments was determined by RT‐qPCR.

[2] = test system: eIF2α phosphatases (GADD34 and PPP1R15B/CReP) and eIF2α kinases (PERK and GCN2); assay: RT-qPCR of key factors regulating SG dynamics; assay type: cell-based; settings: 50 µM, 6 h of reperfusion following OGD, HT22 cells
Protocol: as §1

bEnd.3 cells = assay: In vitro BBB model, Transwell transport apical-to-basolateral; assay type: in vitro ADME; settings: 100 µM, apical-to-basolateral, 30, 60, and 120 min
Protocol: The Transwell filters (0.4 µm pore) were used to evaluate the crossing capacity of the BBB of selected compounds. The basolateral side of the wells was filled by DMEM (Gibco, USA) with 10% FBS. Then, bEnd.3 cells were seeded on the apical side of the semi‐permeable filter in a humidified atmosphere. The culture medium was changed on alternate days. To verify if the cell monolayer formed junctions, the resistance was daily monitored by determining the trans‐endothelial electrical resistance. The resistance value of an empty filter was subtracted from each measurement. After reaching the confluence, bEnd.3 monolayer cells were washed three times with PBS, and the basolateral compartment was filled with Hanks' Balanced Salt Solution (HBSS). The permeability experiments across the cell monolayer were performed in the apical‐to‐basolateral direction. Transport experiments were assessed by placing the compounds, prepared in HBSS, on the upper side of the monolayers (100 µM/300 µL). At different time points (30, 60, and 120 min), 500 µL samples were taken from the basolateral side, and to replace the withdrawn volume, the same volume of preheated HBSS was added. The amount of cellular drug uptake was measured using a Waters e2695 system (Waters, USA).

T1 sequence (Q13283 whole entry): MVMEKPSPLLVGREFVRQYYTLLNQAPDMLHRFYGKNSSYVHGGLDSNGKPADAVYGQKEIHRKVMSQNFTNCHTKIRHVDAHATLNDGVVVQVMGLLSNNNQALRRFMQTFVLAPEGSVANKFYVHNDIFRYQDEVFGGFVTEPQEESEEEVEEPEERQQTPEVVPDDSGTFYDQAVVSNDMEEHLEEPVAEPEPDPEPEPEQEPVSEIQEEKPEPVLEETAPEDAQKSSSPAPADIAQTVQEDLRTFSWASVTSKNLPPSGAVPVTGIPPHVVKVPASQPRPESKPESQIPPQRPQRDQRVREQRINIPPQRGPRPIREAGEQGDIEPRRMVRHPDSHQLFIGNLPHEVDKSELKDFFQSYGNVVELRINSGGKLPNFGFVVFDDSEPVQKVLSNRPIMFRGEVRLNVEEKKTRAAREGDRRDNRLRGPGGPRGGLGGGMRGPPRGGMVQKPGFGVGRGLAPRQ

Row | SMILES | Kd [1] [µM] | protein level of G3BP1 (G3BP1) | level of G3BP1‐bound mRNA (G3BP1‐bound mRNA) | expression of eIF2α phosphatases (GADD34 and PPP1R15B/CReP) [2] | expression of two eIF2α kinases (PERK and GCN2) [2] | transport efficiency (bEnd.3 cells)
1 | Oc1cc(O)c2c(c1)O[C@H](c1ccc(O)c(O)c1)[C@@H](O)[C@@H]2c1c(O)cc(O)c2c1O[C@H](c1ccc(O)c(O)c1)[C@@H](O)C2 [Compound 1, procyanidin B3] | 0.044 | did not perturb the protein level of G3BP1 | higher | significantly lower | significantly higher | –
2 | CC(C)c1c(O)cc(O)c2c1O[C@H](c1ccc(O)c(O)c1)[C@@H](O)[C@@H]2c1c(O)cc(O)c2c1O[C@H](c1ccc(O)c(O)c1)[C@@H](O)C2 [Compound 6c, 8‐Isopropyl‐(+)‐Catechin‐(4α,8)‐(+)‐Catechin] | 0.058 | – | – | – | – | better than that of 1

Source: publication PMC12677652, “Procyanidin B3 and Its Derivatives Alleviate Neuronal Injury by Targeting G3BP1 for Ischemic Stroke Therapy” (Advanced Science, 2025)
